How the values were obtained:
RS4-11 cells = experiment: Cell viability assay (CellTiter-Glo), RS4-11; assay type: cell-based; conditions: Homo sapiens, RS4-11, 72 h, 3 days of incubation
Description: (§1) Example D. Cell Viability Assays (Cell lines HEK293, RS4-11, MOLT-4)
(§2) Cells were seeded at a density of 4000 cells per well in the 384-well clear bottom plate (Greiner Cat #781090) to the 45 μL total volume of either DMEM (PanEco, Cat #C420, for HEK293) or RPMI (PanEco, Cat #C330, for other cell lines) with 10% FBS(HyClone Cat #SV30160.03). Prior to adding compounds, the HEK293 cells were allowed to adhere overnight at 37° C. and 5% CO2. The 500× compounds solutions in DMSO(Sigma Cat #D2650) were dispersed into a 384-well compound plate (Diamond Well Plate, Axigen, Cat #P-384-120 SQ-C—S) including only DMSO control. The 1 μL aliquots of the 500× compounds from the compound plate were added to 49 μL of culture medium in the Dilution plate (Diamond Well Plate, Axigen, Cat #P-384-120 SQ-C—S), mixed and then the 5 μL aliquts of the 10× compound solutions were transferred to cells followed by centrifugation at 100 g for 1 min. Final DMSO concentration was 0.2%. After 3 days of incubation the 10 μL aliquots of CellTiter-Glo (Promega, CAT #G7572) were added to the cells, plate was centrifuged at 100 g for 1 min and the luminescence was measured on the CLARIOstar Plus (BMG LABTECH) instrument.
(§3) Instrumentation: CLARIOstar Plus (BMG LABTECH); Biomek FX for liquid handling (Beckman Coulter).

MOLT-4 cells = experiment: Cell viability assay (CellTiter-Glo), MOLT-4; assay type: cell-based; conditions: Homo sapiens, 72 h, 3 days of incubation
Description: as §1, §2, §3

[1] = test system: caspase-3 and -7 activities in RS4-11 cells; experiment: Caspase-3/7 activation (Caspase-Glo 3/7) in RS4-11 cells; assay type: cell-based; conditions: Homo sapiens, 3.5 h, read-out: Cas-3/7 EC50
Description: Example E. Caspase-3/7 Activation
Assay Principle: The Caspase-Glo 3/7 Assay is homogeneous, luminescent assay that measures caspase-3 and -7 activities. The assay provides a luminogenic caspase-3/7 substrate, which contains the tetrapeptide sequence DEVD, in a reagent optimized for caspase activity.
Assay Procedure: Incubate RS4-11 (ATCC, CRL-1873) cells in the 384-well white plate (Corning, #3570) with varying concentrations of test compounds for 3.5 h in a humidified incubator at 37° C. and 5% CO2 […]. Add 15 μL of the Caspase-Glo (Promega, #8212) reagent to each well and to incubate the plate for 30 min at rt. Read on the CLARIOstar Plus (BMG LABTECH) instrument.
as §3

[2] = Cell viability assay (CellTiter-Glo), HEK293; assay type: cell-based; conditions: human, HEK293 cells, 3 days of incubation
Description: as §1, §2, §3

BCL-xL = BCL-xL (Homo sapiens (Human), UniProt Q07817); experiment: BCL-xL TR-FRET Assay (primary PPI inhibition); assay type: binding; conditions: 60 min incubation, read-out: BCLxL IC50
Sequence of BCL-xL (Q07817 whole entry): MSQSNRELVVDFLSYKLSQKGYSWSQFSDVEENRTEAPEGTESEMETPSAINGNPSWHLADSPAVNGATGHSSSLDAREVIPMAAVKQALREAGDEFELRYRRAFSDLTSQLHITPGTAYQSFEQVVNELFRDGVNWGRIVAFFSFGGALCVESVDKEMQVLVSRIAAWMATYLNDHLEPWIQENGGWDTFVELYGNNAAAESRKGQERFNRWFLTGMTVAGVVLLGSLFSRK
Description: Example B. BCL-xL TR-FRET Assay (BPS Bioscience, #50223)
The following assay concentrations and times were used: 10.5 ng of BCL-xL, 5 μL of 1:120 anti-His Tb-labeled donor, 5 μL of 1:120 Dye-labeled acceptor, 5 μL of 1:96 BCL-xL Peptide Ligand, 2 μL of 200× test compound, with 60 min incubation time (final concentration of DMSO 0.5%). The results of the assay were read using a plate reader with the following parameters: TR FRET, 340ex/620 and 665em; 60 usec Delay; and 500 usec integration.
as §3

BCL-2 = BCL-2 (Homo sapiens (Human), UniProt P10415); experiment: BCL-2 TR-FRET Assay (primary PPI inhibition); assay type: binding; conditions: 60 min incubation, read-out: BCL2 IC50
Sequence of BCL-2 (P10415 whole entry): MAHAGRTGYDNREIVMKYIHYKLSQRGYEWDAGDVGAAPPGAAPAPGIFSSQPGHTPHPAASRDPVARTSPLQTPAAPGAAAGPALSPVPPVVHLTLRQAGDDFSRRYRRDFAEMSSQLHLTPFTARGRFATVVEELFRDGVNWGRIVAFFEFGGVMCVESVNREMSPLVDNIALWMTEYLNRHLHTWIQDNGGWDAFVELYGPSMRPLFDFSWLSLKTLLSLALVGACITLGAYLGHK
Description: Example A. BCL-2 TR-FRET Assay (BPS Bioscience, #50222)
The following assay concentrations and times were used: 3 ng of BCL-2, 5 μL of 1:100 anti-His Tb-labeled donor, 5 μL of 1:100 Dye-labeled acceptor, 5 µL of 1:40 BCL-2 Peptide Ligand, and 2 μL of 200× test compound, with 60 min incubation time (final concentration of DMSO 0.5%). The results of the assay were read using a plate reader with the following parameters: TR FRET, 340ex/620 and 665em; 60 usec Delay; and 500 usec integration.
as §3

Structure (SMILES)	CC50 (RS4-11 cells)	CC50 (MOLT-4 cells)	EC50 [1]	CC50 at 3 days [2]	IC50 (BCL-xL)	IC50 (BCL-2)
COc1cccc(CN(C(=O)c2cc(-c3ccc(OC(F)F)cc3C(=O)N3Cc4ccccc4C[C@H]3CN3CCOCC3)n(C)c2C)c2ccc(Cl)cc2)c1C [Compound 12, N-(4-chlorophenyl)-5-[4-(difluoromethoxy)-2-[(3S)-3-(morpholinomethyl)-3,4-dihydro-1H-isoquinoline-2-carbonyl]phenyl]-N-[(3-methoxy-2-methyl-phenyl)methyl]-1,2-dimethyl-pyrrole-3-carboxamide]	> 200 nM	≤ 5 µM	> 500 nM	> 25 µM	2 to 5 µM	> 50 nM
COc1cccc(CN(C(=O)c2cc(-c3cc(C(F)F)c(Cl)cc3C(=O)N3Cc4ccccc4C[C@H]3CN3CCOCC3)n(C)c2C)c2ccc(C#N)cc2)c1C [Compound 24, 5-[4-chloro-5-(difluoromethyl)-2-[(3S)-3-(morpholinomethyl)-3,4-dihydro-1H-isoquinoline-2-carbonyl]phenyl]-N-(4-cyanophenyl)-N-[(3-methoxy-2-methyl-phenyl)methyl]-1,2-dimethyl-pyrrole-3-carboxamide]	> 200 nM	> 10 µM	> 500 nM	> 25 µM	2 to 5 µM	> 50 nM
COc1cccc(CN(C(=O)c2cc(-c3cc(F)c(OC(F)F)cc3C(=O)N3Cc4ccccc4C[C@H]3CN3CCOCC3)n(C)c2C)c2ccc(Cl)cc2)c1C [Compound 26, N-(4-chlorophenyl)-5-[4-(difluoromethoxy)-5-fluoro-2-[(3S)-3-(morpholinomethyl)-3,4-dihydro-1H-isoquinoline-2-carbonyl]phenyl]-N-[(3-methoxy-2-methyl-phenyl)methyl]-1,2-dimethyl-pyrrole-3-carboxamide]	> 200 nM	≤ 5 µM	> 500 nM	> 25 µM	2 to 5 µM	> 50 nM
COc1cccc(CN(C(=O)c2cc(-c3cc(Cl)c(F)cc3C(=O)N3Cc4ccccc4C[C@H]3CN3CCOCC3)n(C)c2C)c2ccc(O)cc2)c1C [Compound 27, 5-[5-chloro-4-fluoro-2-[(3S)-3-(morpholinomethyl)-3,4-dihydro-1H-isoquinoline-2-carbonyl]phenyl]-N-(4-hydroxyphenyl)-N-[(3-methoxy-2-methyl-phenyl)methyl]-1,2-dimethyl-pyrrole-3-carboxamide]	100 to 200 nM	≤ 5 µM	200 to 500 nM	> 25 µM	2 to 5 µM	10 to 50 nM
COc1cccc(CN(C(=O)c2cc(-c3cc(Cl)ccc3C(=O)N3Cc4ccccc4C[C@H]3CN3CCOCC3)n(C)c2C)c2ccc(C#N)cc2)c1C [Compound 33, 5-[5-chloro-2-[(3S)-3-(morpholinomethyl)-3,4-dihydro-1H-isoquinoline-2-carbonyl]phenyl]-N-(4-cyanophenyl)-N-[(3-methoxy-2-methyl-phenyl)methyl]-1,2-dimethyl-pyrrole-3-carboxamide]					2 to 5 µM	> 50 nM
COc1cccc(CN(C(=O)c2cc(-c3cc(Cl)c(OC(F)F)cc3C(=O)N3Cc4ccccc4C[C@H]3CN3CCOCC3)n(C)c2C)c2ccc(C#N)cc2)c1C [Compound 40, 5-[5-chloro-4-(difluoromethoxy)-2-[(3S)-3-(morpholinomethyl)-3,4-dihydro-1H-isoquinoline-2-carbonyl]phenyl]-N-(4-cyanophenyl)-N-[(3-methoxy-2-methyl-phenyl)methyl]-1,2-dimethyl-pyrrole-3-carboxamide]					2 to 5 µM	> 50 nM
COc1cccc(CN(C(=O)c2cc(-c3cc(F)c(OC(F)F)cc3C(=O)N3Cc4ccccc4C[C@H]3CN3CCOCC3)n(C)c2C)c2ccc(C#N)cc2)c1C [Compound 44, N-(4-cyanophenyl)-5-[4-(difluoromethoxy)-5-fluoro-2-[(3S)-3-(morpholinomethyl)-3,4-dihydro-1H-isoquinoline-2-carbonyl]phenyl]-N-[(3-methoxy-2-methyl-phenyl)methyl]-1,2-dimethyl-pyrrole-3-carboxamide]					2 to 5 µM	> 50 nM
COc1cccc(CN(C(=O)c2cc(-c3c(C)cc(Cl)cc3C(=O)N3Cc4ccccc4C[C@H]3CN3CCOCC3)n(C)c2C)c2ccc(O)cc2)c1C [Compound 50, 5-[4-chloro-2-methyl-6-[(3S)-3-(morpholinomethyl)-3,4-dihydro-1H-isoquinoline-2-carbonyl]phenyl]-N-(4-hydroxyphenyl)-N-[(3-methoxy-2-methyl-phenyl)methyl]-1,2-dimethyl-pyrrole-3-carboxamide]					2 to 5 µM	> 50 nM
COc1cc(-c2cc(C(=O)N(Cc3ccccc3C#N)c3ccc(Cl)cc3)c(C)n2C)c(C(=O)N2Cc3ccccc3C[C@H]2CN2CCOCC2)cc1C#N [Compound 59, N-(4-chlorophenyl)-5-[4-cyano-5-methoxy-2-[(3S)-3-(morpholinomethyl)-3,4-dihydro-1H-isoquinoline-2-carbonyl]phenyl]-N-[(2-cyanophenyl)methyl]-1,2-dimethyl-pyrrole-3-carboxamide]					2 to 5 µM	> 50 nM
COc1cc(-c2cc(C(=O)N(Cc3cccc(OC)c3C)c3ccc(Cl)cc3)c(C)n2C)c(C(=O)N2Cc3ccccc3C[C@H]2CN2CCOCC2)cc1C#N [Compound 60, N-(4-chlorophenyl)-5-[4-cyano-5-methoxy-2-[(3S)-3-(morpholinomethyl)-3,4-dihydro-1H-isoquinoline-2-carbonyl]phenyl]-N-[(3-methoxy-2-methyl-phenyl)methyl]-1,2-dimethyl-pyrrole-3-carboxamide]					2 to 5 µM	> 50 nM
COc1ccccc1CN(C(=O)c1cc(-c2cc(OC)c(C(N)=O)cc2C(=O)N2Cc3ccccc3C[C@H]2CN2CCOCC2)n(C)c1C)c1ccc(Cl)cc1 [Compound 63, 5-[4-carbamoyl-5-methoxy-2-[(3S)-3-(morpholinomethyl)-3,4-dihydro-1H-isoquinoline-2-carbonyl]phenyl]-N-(4-chlorophenyl)-N-[(2-methoxyphenyl)methyl]-1,2-dimethyl-pyrrole-3-carboxamide]	100 to 200 nM	≤ 5 µM	> 500 nM	10 to 25 µM		10 to 50 nM
Cc1c(C(=O)N(Cc2ccccc2C#N)c2ccc3cn[nH]c3c2)cc(-c2cc([N+](=O)[O-])ccc2C(=O)N2Cc3ccccc3C[C@H]2CN2CCOCC2)n1C [Compound 66, N-[(2-cyanophenyl)methyl]-N-(1H-indazol-6-yl)-1,2-dimethyl-5-[2-[(3S)-3-(morpholinomethyl)-3,4-dihydro-1H-isoquinoline-2-carbonyl]-5-nitro-phenyl]pyrrole-3-carboxamide]					> 5 µM	> 50 nM
COc1cccc(CN(C(=O)c2cc(-c3cc([N+](=O)[O-])ccc3C(=O)N3Cc4ccccc4C[C@H]3CN3CCOCC3)n(C)c2C)c2ccc3cn[nH]c3c2)c1C [Compound 67, N-(1H-indazol-6-yl)-N-[(3-methoxy-2-methyl-phenyl)methyl]-1,2-dimethyl-5-[2-[(3S)-3-(morpholinomethyl)-3,4-dihydro-1H-isoquinoline-2-carbonyl]-5-nitro-phenyl]pyrrole-3-carboxamide]					> 5 µM	> 50 nM
